Data: patent publication US6949574B2 (Bristol-Myers Squibb Company, priority 2002, dated 2005)

biological target: T1, human FAAH (Homo sapiens, UniProt O00519); test: FAAH activity in membrane homogenates of H4-FAAH cells, [3H]-anandamide hydrolysis; assay type: biochemical; conditions: not given
T1 construct: expressed in transfected cells; host or cells: H4 cells (H4-FAAH, Geneticin-selected); crude membrane homogenates
T1 sequence (O00519 1-579): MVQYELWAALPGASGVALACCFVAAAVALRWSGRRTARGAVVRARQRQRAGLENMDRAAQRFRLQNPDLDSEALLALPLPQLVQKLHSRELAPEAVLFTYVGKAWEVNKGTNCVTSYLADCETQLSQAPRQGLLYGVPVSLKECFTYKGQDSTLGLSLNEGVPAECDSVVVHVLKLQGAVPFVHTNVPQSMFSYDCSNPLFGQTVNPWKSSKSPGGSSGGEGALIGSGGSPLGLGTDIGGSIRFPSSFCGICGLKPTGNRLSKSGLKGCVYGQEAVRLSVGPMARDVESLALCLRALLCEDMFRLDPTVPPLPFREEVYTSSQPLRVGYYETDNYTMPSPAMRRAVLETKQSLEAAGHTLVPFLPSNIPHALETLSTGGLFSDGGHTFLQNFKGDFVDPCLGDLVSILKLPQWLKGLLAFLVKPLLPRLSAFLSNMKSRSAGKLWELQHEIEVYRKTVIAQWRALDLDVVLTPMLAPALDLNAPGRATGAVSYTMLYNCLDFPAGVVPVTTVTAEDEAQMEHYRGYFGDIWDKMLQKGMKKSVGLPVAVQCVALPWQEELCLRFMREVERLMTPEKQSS
Experimental: Homogenates of crude membranes were prepared from H4 cells that express transfected human FAAH (H4-FAAH cells). Briefly, cells were grown in DMEM supplemented with 10% FBS and Geneticin at a final concentration of 500 μg/ml (Gibco BRL, Rockville, Md.). Confluent cultures of H4-FAAH cells were rinsed twice with phosphate-buffered saline [138 mM NaCl, 4.1 mM KCl, 5.1 mM Na2PO4, 1.5 mM KH2PO4 (pH 7.5), 37° C.] and incubated for 5 to 10 minutes at 4° C. in lysis buffer [1 mM sodium bicarbonate]. Cells were transferred from plates to polypropylene tubes (16×100 mm), homogenized and centrifuged at 32,000×g for 30 minutes. Pellets were resuspended by homogenization in lysis buffer and centrifuged at 32,000×g for 30 minutes. Pellets were resuspended in lysis buffer (15-20 μg protein/ml) then stored at −80° C. until needed. On the day of an experiment, membranes were diluted to 2.67 μg protein/ml in 125 mM Tris-Cl, pH 9.0.
Activity of FAAH was measured using a modification of the method described by Omeir et al., 1995 (Life Sci 56:1999, 1995). Membrane homogenates (240 ng protein) were incubated at room temperature for one hour with 1.67 nM anandamide [ethanolamine 1-^3H] (available from American Radiolabeled Chemical Inc., St Louis, Mo.) and 10 μM anandamide (available from Sigma/RBI, St. Louis, Mo.) in the absence and presence of inhibitors. The reaction was stopped by the addition of 1 volume of a solution of 1:1 methanol and dichloroethane. The mixture was shaken and then centrifuged at 1000×g for 15 minutes to separate the aqueous and organic phases. An aliquot of the aqueous phase, containing [^3H]-ethanolamine was withdrawn and counted by scintillation spectroscopy. Data were expressed as the percentage of [^3H]-ethanolamine formed versus vehicle, after subtraction of the background radioactivity determined in the presence of 10 μM arachidonyl trifluoromethyl ketone (ATFMK), an inhibitor of FAAH. IC50 values were determined using a four-parameter logistic equation for dose-response curves.

| SMILES | IC50 |
| --- | --- |
| CCCCCCCCCCOc1ccc(NC(=O)Oc2ccccc2)cc1 [Example 101, 4-Decyloxyphenylcarbamic acid, phenyl ester] | < 10 nM |
| CCc1ccc(-c2ccc(NC(=O)Oc3ccccc3F)cc2)cc1 [Example 124, 4′-Ethyl-[1,1′-biphenyl]-4-ylcarbamic acid, 2-fluorophenyl ester] | > 500 nM |
| CCCCCCCCCOc1ccc(NC(=O)O/N=C/c2cccnc2)cc1 [Example 4, 3-Pyridinecarboxaldehyde, O-[[[4-(nonyloxy)phenyl]amino]carbonyl]oxime] | < 10 nM |

same assay, conditions: H4-FAAH cell membranes, 10 μM anandamide, room temperature, one hour; read-out: IC50

| SMILES | IC50 |
| --- | --- |
| CCCCCCCCCCCOc1ccc(NC(=O)O/N=C/c2ccccc2)cc1 [Example 37, Benzaldehyde, O-[[(4-undecyloxyphenyl)amino]carbonyl]oxime] | < 10 nM |
| CCCCCCCOc1ccc(NC(=O)Oc2ccccc2F)cc1 [Example 97, 4-Heptyloxyphenylcarbamic acid, 2-fluorophenyl ester] | 10 to 100 nM |
| CCCOc1ccc(NC(=O)O/N=C/c2ccccc2)cc1 [Example 10, Benzaldehyde, O-[[(4-propoxyphenyl)amino]carbonyl]oxime] | < 10 nM |
| CCCCCCCCCCCCOc1ccc(NC(=O)O/N=C/c2ccccc2)cc1 [Example 41, Benzaldehyde, O-[[(4-dodecyloxyphenyl)amino]carbonyl]oxime] | < 10 nM |
| CCCCCCCCOc1ccc(NC(=O)O/N=C/c2ccccc2)cc1 [Example 45, Benzaldehyde, O-[[(4-octyloxyphenyl)amino]carbonyl]oxime] | < 10 nM |
| CCCCCCCCCCOc1ccc(NC(=O)O/N=C/c2ccc(F)cc2)cc1 [Example 34, 4-Fluorobenzaldehyde, O-[[(4-decyloxyphenyl)amino]carbonyl]oxime] | < 10 nM |
| CCCCCCCOc1ccc(NC(=O)O/N=C/c2ccccc2)cc1 [Example 27, Benzaldehyde, O-[[(4-heptyloxyphenyl)amino]carbonyl]oxime] | < 10 nM |
| CCCCCOc1ccc(NC(=O)ON=C(C)C)cc1 [Example 8, 2-Propanone, O-[[(4-pentyloxyphenyl)amino]carbonyl]oxime] | 10 to 100 nM |
| CCCCOc1ccc(CNC(=O)Oc2ccc(C(F)(F)F)cc2)cc1 [Example 119, 4-(Butoxyphenylmethyl)carbamic acid, 4-(trifluoromethyl)phenyl ester] | 10 to 100 nM |
| CCCCCCCCC(=O)Nc1ccc(NC(=O)O/N=C/c2ccc(F)cc2F)cc1 [Example 139, 2,4-Difluorobenzaldehyde, O-[[(4-Nonanoylamino-phenyl)amino]carbonyl]oxime] | < 10 nM |
| O=C(Nc1ccc2[nH]ccc2c1)O/N=C/c1ccccc1 [Example 143, Benzaldehyde, O-[[(1H-indol-5-yl)amino]carbonyl]oxime] | > 500 nM |
| O=C(Nc1ccc2[nH]ccc2c1)O/N=C/c1cccnc1 [Example 141, 3-Pyridinecarboxaldehyde, O-[[(1H-indol-5-yl)amino]carbonyl]oxime] | > 500 nM |
| O=C(Nc1ccc2[nH]ccc2c1)O/N=C/c1ccc(F)cc1 [Example 142, 4-Fluorobenzaldehyde, O-[[(1H-indol-5-yl)amino]carbonyl]oxime] | > 500 nM |
| CCCCOc1ccc(C(CC)NC(=O)Oc2ccccc2F)cc1 (centres unmarked) [Example 135, [1-(4-Butoxy-phenyl)-propyl]-carbamic acid 2-fluoro-phenyl ester] | < 10 nM |
| O=C(Nc1ccc(-c2ccccc2)cc1)O/N=C/c1ccccc1 [Example 72, Benzaldehyde, O-[[([1,1′-biphenyl]-4-yl)amino]carbonyl]oxime] | 10 to 100 nM |
| CCCCCCCCOc1ccc(NC(=O)O/N=C/c2ccc(F)cc2)cc1 [Example 46, 4-Fluorobenzaldehyde, O-[[(4-octyloxyphenyl)amino]carbonyl]oxime] | < 10 nM |
| CCCCOc1ccc(CNC(=O)Oc2ccccc2F)cc1 [Example 112, 4-(Butoxyphenylmethyl)carbamic acid, 2-fluorophenyl ester] | < 10 nM |
| CCCCCCCCC(=O)Nc1ccc(NC(=O)O/N=C/c2cccc(C(F)(F)F)c2)cc1 [Example 138, 3-Trifluoromethylbenzaldehyde, O-[[(4-Nonanoylamino-phenyl)amino]carbonyl]oxime] | 10 to 100 nM |

| SMILES | IC50 |
| --- | --- |
| CCCCCCCCOc1ccc(NC(=O)Oc2ccccc2)cc1 [Example 98, 4-Octyloxyphenylcarbamic acid, phenyl ester] | < 10 nM |
| O=C(Nc1ccc(Oc2ccccc2)cc1)O/N=C/c1cccnc1 [Example 71, 3-Pyridinecarboxaldehyde, O-[[(4-phenoxyphenyl)amino]carbonyl]oxime] | < 10 nM |
| CCCCCCCCCCCCOc1ccc(NC(=O)O/N=C/c2cccnc2)cc1 [Example 43, 3-Pyridinecarboxaldehyde, O-[[(4-dodecyloxyphenyl)amino]carbonyl]oxime] | < 10 nM |
| O=C(Nc1c[nH]c2ccccc12)O/N=C/c1ccc(F)cc1 [Example 144, 4-Fluorobenzaldehyde, O-[[(1H-indol-3-yl)amino]carbonyl]oxime] | > 500 nM |
| CCCCOc1ccc(NC(=O)OC)cc1 [Example 95, 4-Butoxyphenylcarbamic acid, methyl ester] | > 500 nM |
| CCCCOc1ccc(NC(=O)Oc2ccccc2OC)cc1 [Example 110, 4-Butoxyphenylcarbamic acid, 2-methoxyphenyl ester] | > 500 nM |
| CCCCCCCOc1ccc(NC(=O)Oc2ccccc2)cc1 [Example 96, 4-Heptyloxyphenylcarbamic acid, phenyl ester] | < 10 nM |
| CCCCCCOc1ccc(NC(=O)O/N=C/c2cccnc2)cc1 [Example 25, 3-Pyridinecarboxaldehyde, O-[[(4-hexyloxyphenyl)amino]carbonyl]oxime] | < 10 nM |
| CCCCOc1ccc(NC(=O)Oc2ccc(F)c(F)c2)cc1 [Example 109, 4-Butoxyphenylcarbamic acid, 3,4-difluorophenyl ester] | > 500 nM |
| CCCCCCOc1ccc(NC(=O)ON=C(C)C)cc1 [Example 22, 2-Propanone, O-[[(4-hexyloxyphenyl)amino]carbonyl]oxime] | 10 to 100 nM |
| CCCCOc1ccc(C(CC)NC(=O)Oc2ccc(C(C)C)cc2)cc1 (centres unmarked) [Example 129, [1-(4-Butoxy-phenyl)-propyl]-carbamic acid 4-isopropyl-phenyl ester] | 101 to 500 nM |
| CCCCOc1ccc(NC(=O)O/N=C(/C)Cl)cc1 [Example 155, (1Z)-N-[[[(4-butoxyphenyl)amino]carbonyl]oxy]ethanimidoyl chloride] | < 10 nM |
| CCCCCCCCCOc1ccc(NC(=O)O/N=C/c2ccc(F)cc2F)cc1 [Example 51, 2,4-Difluorobenzaldehyde, O-[[(4-nonyloxyphenyl)amino]carbonyl]oxime] | < 10 nM |
| CCCCOc1ccc(NC(=O)Oc2ccccc2F)cc1 [Example 107, 4-Butoxyphenylcarbamic acid, 2-fluorophenyl ester] | 101 to 500 nM |
| CCCCOc1ccc(CNC(=O)Oc2ccccc2)cc1 [Example 111, 4-(Butoxyphenylmethyl)carbamic acid, phenyl ester] | < 10 nM |
| CCCCOc1ccc(C(CC)NC(=O)Oc2ccc(F)cc2F)cc1 (centres unmarked) [Example 131, [1-(4-Butoxy-phenyl)-propyl]-carbamic acid 2,4-difluoro-phenyl ester] | 10 to 100 nM |
| CCCCOc1ccc(NC(=O)Oc2ccc(Cl)cc2)cc1 [Example 100] | 10 to 100 nM |
